Where a SMILES comes first, the peptide text is derived from it. [ ]: non-standard residue; d: D form. The star is where a group is joined. Cys(free,S-linked) = N[C@@H](CS*)C(=O)O; dAbu = CC[C@@H](N)C(=O)O
What was measured:
[1] = system: rat peritoneal mast cells; experiment: In vitro histamine release in rat peritoneal mast cells; type: cell-based; conditions: final concentration 10 μM
Description: To evaluate the in vitro histamine release levels induced by some of the test example compounds, rat peritoneal mast cells were collected by lavaging rat peritoneum with a lavage buffer (cold HBSS+25 mM HEPES containing heparin 5 U/mL, pH 7.4). After collection, the cells were centrifuged, and the lavage buffer was discarded. The cells were resuspended and washed twice with a stimulation buffer (HBSS+25 mM HEPES+1 mM CaCl2), pH 7.4). The cells were plated at a density of 10^5 cell/well (200 μL/well) and incubated at 37° C. for 15 min with positive control compound 48/80 (final concentration: 4 μg/mL), test example compound (final concentration: 10 μM) or vehicle control. The cells were centrifuged, and cell supernatant was collected and tested for histamine concentration according to LDN Histamine ELISA kit (BAE-1000) instructions.

normal rats = experiment: In vivo efficacy in a normal rat model after a single dose; parameters: species or system rat (Sprague Dawley); conditions: 3 mg/kg intravenous
Description: SPF normal adult rats (Sprague Dawley, or SD) with weight of 250-350 g were fed with normal diet in an animal room for 7 days. Rats were randomized into groups of 6, half female and half male, and numbered. The day before the start of the experiment, 540 μL of blood was collected from each rat, and the plasma parathyroid hormone levels and the serum calcium ion concentration were measured as control values before administration. […] The plasma parathyroid hormone levels were measured using the Rat Intact PTH ELISA Kit (Quidel—Immunotopics, Cat. #: 60-2500; ELISA: Enzyme-linked immunosorbent assay) according to the kit instructions. […] The absorbance at 450 nm in each well was detected within 10 min after the addition of the ELISA terminating solution, while the absorbance at 620 nm was subtracted as background. A mixture of horseradish peroxidase ELISA substrate 150 μL and ELISA terminating solution 100 μL was used as the blank control in the absorbance detection. A standard curve according to the absorbance of the reference standard was plotted, and the actual plasma parathyroid hormone concentration was calculated according to the absorbance of other samples and the standard curve. […]

human red blood cells = experiment: Hemolytic effect on human red blood cells in vitro; conditions: compound of formula (I) at 100 μg/mL; 37° C. for 1 h; absorbance at 540 nm; FIG. 1

Compound	histamine release levels in rat peritoneal mast cells in vitro relative to the etelcalcetide [1]	Relative fold of histamine release in vitro ([1]; 37° C. 15 min, relative to PBS buffer)	serum calcium ion levels (normal rats; FIG. 3)	plasma parathyroid hormone levels (normal rats; within 4 h, FIG. 2)	hemolytic effect on red blood cells (human red blood cells)
CC[C@@H](NC(=O)[C@@H](CCCNC(=N)N)NC(=O)[C@@H](CCCNC(=N)N)NC(=O)[C@@H](CSSC[C@H](N)C(=O)O)NC(C)=O)C(=O)N[C@H](CCCNC(=N)N)C(=O)N[C@H](C)C(=O)N[C@H](CCCNC(=N)N)C(N)=O [Compound of formula (I), Ac-c(C)-r-r-(D-Abu)-r-a-r-NH2] (Ac-[dC](Cys(free,S-linked))[dR][dR][dAbu][dR][dA][dR]-NH2)	greatly reduced	0.97	correspondingly reduced	completely reduced	
polyethylene glycol octyl phenyl ether					significant hemolytic effect

— patent US20240269227A1, “CALCIUM-SENSING RECEPTOR AGONIST COMPOSITION AND APPLICATION THEREOF” (Beijing Tuo Jie Biopharmaceutical Co. Ltd., priority 2021, published 2024)
